In patent US4421912A, “Cephalosporin derivatives” (Takeda Chemical Industries, Ltd., priority 1973, dated 1983):
In brackets after ≈: the same amount, converted by molar mass. Read-outs that look alike come from different tables or passages of the source.

What was measured:
P. vulgaris IFO 3988 = assay: Antibacterial spectra, agar dilution method; assay type: cell-based; details: Proteus vulgaris, IFO3988; P. vulgaris IFO 3988; agar dilution method; Table 11; read-out: Antibacterial spectra
From the text: (§1) |(mcg./ml., agar dilution method)

E. coli T-7 = assay: Antibacterial spectra, agar dilution method; assay type: cell-based; details: Escherichia coli
From the text: as §1

E. coli NIHJ JC-2 = assay: Antibacterial spectra, agar dilution method; assay type: cell-based; details: Escherichia coli
From the text: (§2) (mcg/ml., agar dilution method)
as §2
(§3) (mcg/ml, agar dilution method)
(§4) (mcg./ml., agar dilution method)

E. coli 0-111 = assay: Antibacterial spectra, agar dilution method; assay type: cell-based
From the text: as §2, §2, §3, §4

S. aureus 209P = assay: Antibacterial spectra, agar dilution method; assay type: cell-based; details: Staphylococcus aureus
From the text: as §2, §2, §3, §4

S. aureus 1840 = assay: Antibacterial spectra, agar dilution method; assay type: cell-based
From the text: as §2, §2, §3, §4

Escherichia coli 0111 = assay: Protective Effect on Infected Mice; assay type: in vivo; details: Escherichia coli, 0111, sc, 168 h, male ICR/SLC mice, i.p. E. coli 0111, single subcutaneous dose immediately after challenge, 7 days
From the text: Protective Effect (ED50 * , mg/kg) on Infected Mice
*Test animals: male mice (ICR/SLC) 5 mice per group per single dose
Infection: intraperitoneally with Escherichia coli 0111
Administration: a single subcutaneous dose immediately after challenge
Observation period: 7 days
*Test animals: male mice (ICR/SLC) 5 mice per group single dose

K. pneumoniae DT = assay: Antibacterial spectra, agar dilution method; assay type: cell-based; details: Klebsiella pneumoniae
P. morganii Eb53 = assay: Antibacterial spectra, agar dilution method; assay type: cell-based; details: for MIC: Morganella morganii
From the text: as §3, §4

P. vulgaris Eb-58 = assay: Antibacterial spectra, agar dilution method; assay type: cell-based; details: Proteus vulgaris, EB58, tables in Examples 13 and 16
From the text: as §2, §3

P. vulgaris Eb-57 = assay: Antibacterial spectra, agar dilution method; assay type: cell-based; details: Proteus vulgaris
From the text: |(mcg/ml., agar dilution method)

[1] = T7, read-out: Antibacterial spectra
[2] = NIHJJC2, read-out: Antibacterial spectra, E. coli NIHJ JC-2, Table 11
[3] = Escherichia coli, 0111, E. coli 0-111, Table 11
[4] = 209P, read-out: Antibacterial spectra, S. aureus 209P, Table 11
[5] = EB53, read-out: Antibacterial spectra
[6] = NIHJJC2, read-out: Antibacterial spectra, E. coli NIHJ JC-2, tables in the Examples
[7] = Escherichia coli, 0111, E. coli 0-111, tables in the Examples
[8] = 209P, read-out: Antibacterial spectra, S. aureus 209P, tables in the Examples
[9] = Staphylococcus aureus, 1840, read-out: Antibacterial spectra, S. aureus 1840, tables in the Examples
[10] = Staphylococcus aureus, 1840, read-out: Antibacterial spectra, S. aureus 1840, Table 11
[11] = T7, E. coli T-7, agar dilution method, Table 11, read-out: Antibacterial spectra
[12] = P. morganii Eb53, agar dilution method, Table 11, read-out: Antibacterial spectra

| Compound | MIC (P. vulgaris IFO 3988) [µg/mL] | MIC (E. coli T-7; [1]) [µg/mL] | MIC (E. coli NIHJ JC-2; [2]) [µg/mL] | MIC (E. coli 0-111; [3]) [µg/mL] | MIC (S. aureus 209P; [4]) [µg/mL] | ED50 (Escherichia coli 0111; Table 13, read-out: ED50) [mg/kg] | MIC (K. pneumoniae DT; Table 11) [µg/mL] | MIC (P. morganii Eb53; [5]) [µg/mL] | MIC (S. aureus 209P; [8]) [µg/mL] | MIC (S. aureus 1840; [9]) [µg/mL] | MIC (K. pneumoniae DT; tables in the Examples) [µg/mL] | MIC (S. aureus 1840; [10]) [µg/mL] | further results |
| --- | --- | --- | --- | --- | --- | --- | --- | --- | --- | --- | --- | --- | --- |
| CN(C)CCNc1nnc(SCC2=C(C(=O)O)N3C(=O)C(NC(=O)Cc4csc(N)n4)C3SC2)s1 (stereo not shown) [Compound 18] | 1.56 (≈ 2.8 µM) | 6.25 (≈ 11.2 µM) | 0.78 (≈ 1.4 µM) | ≤ 0.2 | 1.56 (≈ 2.8 µM) | < 0.625 | ≤ 0.2 | 1.56 (≈ 2.8 µM) | – | – | – | – | MIC (S. aureus 1840; Staphylococcus aureus, S. aureus 1840, Table 11, read-out: Antibacterial spectra): 3.13 µg/mL (≈ 5.62 µM) |
| Cn1nnnc1SCC1=C(C(=O)O)N2C(=O)C(NC(=O)Cc3csc(N)n3)C2SC1 (stereo not shown) [Example 16, sodium 7-[2-(2-aminothiazol-4-yl)acetamido]-3-(1-methyltetrazol-5-yl)thiomethyl-3-cephem-4-carboxylate] | – | – | – | – | – | – | – | – | 0.39 | 0.78 | < 0.1 | – | MIC (E. coli NIHJ JC-2; [6]): 0.39 µg/mL; MIC (E. coli 0-111; [7]): 0.2 µg/mL; ED50 (Escherichia coli 0111; Table 14, read-out: ED50): 0.89 mg/kg; MIC (P. vulgaris Eb-58): 0.39 µg/mL; MIC (P. morganii Eb53; P. morganii Eb53, agar dilution method, table in Example 16, read-out: Antibacterial spectra): 3.12 µg/mL |
| NC(=O)CSc1nnc(SCC2=C(C(=O)[O-])N3C(=O)C(NC(=O)Cc4csc(N)n4)[C@H]3SC2)s1.[Na+] (stereo partly shown) [Compound 16, sodium 7-[2-(2-aminothiazol-4-yl)acetamido]-3-(2-carbamoylmethylthio-1,3,4-thiadiazol-5-yl)thiomethyl-3-cephem-4-carboxylate] | ≤ 0.2 | 12.5 | 0.39 | ≤ 0.2 | ≤ 0.2 | < 0.625 | ≤ 0.2 | 1.56 | – | – | – | 0.78 | – |
| Cc1nnc(SCC2=C(C(=O)O)N3C(=O)[C@@H](NC(=O)Cn4cnnn4)[C@H]3SC2)s1 [Cephazolin, reference compound] | 6.25 (≈ 13.8 µM) | – | 1.56 (≈ 3.43 µM) | 0.78 (≈ 1.72 µM) | ≤ 0.2 | – | 1.56 (≈ 3.43 µM) | – | 0.1 (≈ 0.22 µM) | 1.56 (≈ 3.43 µM) | 1.56 (≈ 3.43 µM) | 0.78 (≈ 1.72 µM) | MIC (P. vulgaris Eb-57; EB57, P. vulgaris Eb-57, agar dilution method, table in Example 10, read-out: Antibacterial spectra): 50 µg/mL (≈ 110 µM); MIC (E. coli T-7; [11]): 50 µg/mL (≈ 110 µM); MIC (E. coli NIHJ JC-2; [6]): 1.56 µg/mL (≈ 3.43 µM); MIC (E. coli 0-111; [7]): 1.56 µg/mL (≈ 3.43 µM); MIC (S. aureus 209P; S. aureus 209P, tables in the Examples, read-out: Antibacterial spectra): 0.01 µg/mL (≈ 0.022 µM); ED50 (Escherichia coli 0111; Table 14, read-out: ED50): 3.1 mg/kg; MIC (P. vulgaris Eb-58): 6.25 µg/mL (≈ 13.8 µM); MIC (P. morganii Eb53; [12]): 100 µg/mL (≈ 220 µM); Antibacterial spectra (P. morganii Eb53; P. morganii Eb53, agar dilution method, table in Example 16): 100 µg/mL |
| Nc1nc(CC(=O)NC2C(=O)N3C(C(=O)O)=C(CSc4nnc(SCCS(=O)(=O)O)s4)CSC23)cs1 (stereo not shown) [Compound 12] | ≤ 0.2 | – | 0.78 (≈ 1.28 µM) | ≤ 0.2 | 0.39 (≈ 0.639 µM) | < 0.625 | ≤ 0.2 | – | – | – | – | 1.56 (≈ 2.55 µM) | MIC (E. coli T-7; [11]): 50 µg/mL (≈ 81.9 µM); MIC (P. morganii Eb53; [12]): 25 µg/mL (≈ 40.9 µM) |
| CC(=O)OCC1=C(C(=O)O)N2C(=O)C(NC(=O)Cc3csc(N)n3)C2SC1 (stereo not shown) [Example 10, sodium 7-[2-(2-aminothiazol-4-yl)acetamido]-3-acetoxymethyl-3-cephem-4-carboxylat] | – | – | – | – | – | – | – | – | < 0.78 | 1.56 | < 0.78 | – | MIC (P. vulgaris Eb-57; EB57, read-out: Antibacterial spectra): < 0.78 µg/mL; MIC (E. coli NIHJ JC-2; NIHJJC2, E. coli NIHJ JC-2, tables in the Examples, read-out: Antibacterial spectra): 1.56 µg/mL |
| NC(=O)Cc1nnc(SCC2=C(C(=O)[O-])N3C(=O)C(NC(=O)Cc4csc(N)n4)[C@H]3SC2)s1.[Na+] (stereo partly shown) [Compound 21, sodium 7-[2-(2-aminothiazol-4-yl)acetamido]-3-(2-carbamoylmethyl-1,3,4-thiadiazol-5-yl)thiomethyl-3-cephem-4-carboxylate] | ≤ 0.2 | 25 | 0.39 | ≤ 0.2 | ≤ 0.2 | – | ≤ 0.2 | 0.78 | – | – | – | 1.56 | ED50 (Escherichia coli 0111; Table 12, read-out: Protective Effect (ED50) on Infected Mice): < 0.625 mg/kg |
